Molecules are shown by their SMILES.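 Interpolation was linear, between the two tested concentrations surrounding the appropriate level; five concentrations were tested over 48 hours in 96-well plates. Here, GI50 denotes the concentration required for 50% inhibition of growth. At the TGI there is no net growth.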

Among the test systems are LOX IMVI melanoma; SNB-19 CNS; COLO 205 colon; HT29 colon; IGROV1 ovarian; SF-268 CNS; HOP-92 NSCLC; M14 melanoma; SK-MEL-28 melanoma; PC-3 prostate.
Common to all, as to test: NCI tumour cell line growth inhibition, 48 h

For the compound `O=C(O)c1ccc([N+](=O)[O-])c2c(=O)c3ccccc3[nH]c12`, the TGI in the experiment with LOX IMVI melanoma, in the experiment on SNB-19 CNS, with COLO 205 colon, in the experiment on HT29 colon, in the experiment on IGROV1 ovarian and in the experiment on SF-268 CNS was above 100 µM each time. Besides, the TGI in the experiment with HOP-92 NSCLC and in the experiment on M14 melanoma was above 100 µM throughout.
As to `CCN(CC)C(=S)N/N=C(\C)c1ccccc1O`, the TGI in the experiment on LOX IMVI melanoma was 77.4 µM; with SNB-19 CNS, above 100 µM; with COLO 205 colon it was above 100 µM; in the experiment on HT29 colon it was 48 µM; in the experiment with SK-MEL-28 melanoma, above 100 µM; in the experiment on IGROV1 ovarian, above 100 µM. For the same compound, the TGI in the experiment with SF-268 CNS is above 100 µM; in the experiment on M14 melanoma, 51.3 µM.
Regarding `CCCCC(=O)[O-].N.N.N.N.N.[Co+3].[O-][Cl+3]([O-])([O-])[O-]`, the GI50 with LOX IMVI melanoma, in the experiment with SNB-19 CNS, in the experiment with COLO 205 colon, with HT29 colon, with SK-MEL-28 melanoma and with IGROV1 ovarian was above 100 µM throughout. Besides, the GI50 in the experiment on SF-268 CNS, in the experiment with HOP-92 NSCLC and in the experiment with M14 melanoma was above 100 µM in each case. In addition, the TGI with LOX IMVI melanoma, in the experiment with SNB-19 CNS, with COLO 205 colon, in the experiment on HT29 colon, with SK-MEL-28 melanoma and in the experiment with IGROV1 ovarian was above 100 µM throughout. The TGI with SF-268 CNS, with HOP-92 NSCLC and with M14 melanoma was above 100 µM each time.
As for `COC[C@H]1OC(=O)c2coc3c2[C@@]1(C)C1=C(C3=O)[C@@H]2CCC(=O)[C@@]2(C)C[C@H]1OC(C)=O`, the TGI is 53.8 µM in the experiment with LOX IMVI melanoma; above 100 µM with SNB-19 CNS; above 100 µM in the experiment on PC-3 prostate; above 31.6 µM in the experiment on COLO 205 colon; 97.8 µM in the experiment on HT29 colon; above 100 µM in the experiment on SK-MEL-28 melanoma. Further, the TGI is 19.3 µM in the experiment on IGROV1 ovarian, above 100 µM in the experiment with SF-268 CNS and above 59 µM in the experiment with M14 melanoma.
As to `CCc1nc2ccc(Cc3ccc(C(=O)NO)cc3)cc2c(=O)n1CCc1ccccc1`, the GI50 with LOX IMVI melanoma was 1.16 µM; with SNB-19 CNS, 2.07 µM; with COLO 205 colon it was 0.871 µM; in the experiment on HT29 colon, 0.919 µM; in the experiment with SK-MEL-28 melanoma it was 1.47 µM; in the experiment on SF-268 CNS, 1.31 µM. The GI50 was 1.36 µM in the experiment on HOP-92 NSCLC and 1.27 µM in the experiment with M14 melanoma. Also, the TGI in the experiment with LOX IMVI melanoma is 2.5 µM; in the experiment with SNB-19 CNS it was 7.57 µM; with COLO 205 colon it was 2.55 µM; with HT29 colon it was 4.5 µM; in the experiment with SK-MEL-28 melanoma it was 5.72 µM; in the experiment with SF-268 CNS it was 3.91 µM. Further, the TGI in the experiment with HOP-92 NSCLC was 2.98 µM; with M14 melanoma it was 3.24 µM.
Take `O=C(c1ccc(NCN2C(=O)CCC2=O)cc1)c1ccc(NCN2C(=O)CCC2=O)cc1`: the TGI in the experiment on LOX IMVI melanoma, with SNB-19 CNS, with COLO 205 colon, in the experiment on HT29 colon, in the experiment with SK-MEL-28 melanoma and with IGROV1 ovarian was above 100 µM in each case. Besides, the TGI in the experiment on SF-268 CNS, in the experiment on HOP-92 NSCLC and with M14 melanoma was above 100 µM in each case.
As for `CNS(=O)(=O)NN(C)S(=O)(=O)c1ccc(Br)cc1`, the TGI with LOX IMVI melanoma, in the experiment on SNB-19 CNS, in the experiment with COLO 205 colon, in the experiment on HT29 colon, in the experiment on IGROV1 ovarian and in the experiment with M14 melanoma was above 100 µM each time.
As for `O=C(N/N=C/c1cc(Br)cc(Br)c1[O-])c1ccccc1O.O=C(N/N=C/c1cc(Br)cc(Br)c1[O-])c1ccccc1O.[Mn+2]`, the TGI with SNB-19 CNS is 36 µM; in the experiment on COLO 205 colon, 13.2 µM; with HT29 colon, 22.3 µM; with SK-MEL-28 melanoma, 13.8 µM; in the experiment with IGROV1 ovarian it was 22.7 µM; in the experiment on SF-268 CNS, 10.6 µM. The TGI worked out at 14.9 µM with HOP-92 NSCLC and 3.48 µM in the experiment with M14 melanoma.
With `O[C@]12CCCC[C@H]1CCC2`, the TGI with LOX IMVI melanoma, in the experiment on SNB-19 CNS, with COLO 205 colon, in the experiment on HT29 colon, in the experiment on SK-MEL-28 melanoma and with IGROV1 ovarian was above 100 µM throughout. Further, the TGI with SF-268 CNS, with HOP-92 NSCLC and in the experiment with M14 melanoma was above 100 µM in each case.
Consider `C=CCN=C1N=C(CC(=O)OCC)CS1`, for which the TGI with LOX IMVI melanoma, in the experiment on SNB-19 CNS, in the experiment on COLO 205 colon, with HT29 colon, in the experiment with SK-MEL-28 melanoma and in the experiment on IGROV1 ovarian was above 100 µM each time. Further, the TGI in the experiment on SF-268 CNS, in the experiment on HOP-92 NSCLC and with M14 melanoma was above 100 µM throughout.
With `COC1=C(C(=O)OC(C)(C)C)[C@]2(C)C(C(=O)OC(C)(C)C)C(OC)=C(C(=O)OC(C)(C)C)[C@]2(C)C1C(=O)OC(C)(C)C` (stereo partly specified), the TGI with LOX IMVI melanoma, in the experiment with SNB-19 CNS, in the experiment with COLO 205 colon, in the experiment with HT29 colon, with IGROV1 ovarian and in the experiment on SF-268 CNS was above 100 µM throughout. Also, the TGI in the experiment with HOP-92 NSCLC and in the experiment on M14 melanoma was above 100 µM in each case.
`CCOC(=O)NC(=O)c1cn(CCCOC(=O)CCCCCCCCC(=O)OCCCn2cc(C(=O)NC(=O)OCC)c(=O)[nH]c2=O)c(=O)[nH]c1=O`: the TGI was above 100 µM in the experiment on LOX IMVI melanoma; 57.4 µM with SNB-19 CNS; 64.4 µM with COLO 205 colon; above 100 µM in the experiment on HT29 colon; 64.8 µM with SK-MEL-28 melanoma; 58.1 µM in the experiment with IGROV1 ovarian. Besides, in the experiment with M14 melanoma, the TGI is 76 µM.
In the case of `Nc1ncc(-c2ccc(C(F)(F)F)cc2)c(NC2CCCCCC2)n1`, the GI50 in the experiment on SNB-19 CNS is 47.4 µM; in the experiment with PC-3 prostate, 25.4 µM; in the experiment on COLO 205 colon, 19.5 µM; in the experiment with HT29 colon it was 40.6 µM; with SK-MEL-28 melanoma it was 53.6 µM; in the experiment with IGROV1 ovarian it was 19.5 µM. For the same compound, the figures for the GI50 with SF-268 CNS and in the experiment with M14 melanoma were 48.4 µM and 32.9 µM, respectively. The TGI in the experiment with SNB-19 CNS was above 100 µM; in the experiment on PC-3 prostate, above 100 µM; with COLO 205 colon, 36.7 µM; in the experiment on HT29 colon, above 100 µM; in the experiment on SK-MEL-28 melanoma it was above 100 µM; in the experiment with IGROV1 ovarian, above 100 µM. The TGI in the experiment with SF-268 CNS and in the experiment with M14 melanoma was above 100 µM each time.

Source of the values: PubChem BioAssay (NCI).
